# In patent US7943658B2, “Indole indane amide compounds useful as CB2 agonists and method” (Bristol-Myers Squibb Company, priority 2007, dated 2011):
# Tests used:
# hCB2 receptors = molecular target: T1, hCB2 receptors (Homo sapiens, UniProt P34972); assay: Filtration binding assay, [3H]CP55,940 displacement; conditions: membrane proteins or CHO cells expressing hCB2, read-out: CB2 binding Ki
# T1 construct: expressed in transfected cells; host or cells: CHO cells
# Description: Compound dilutions were carried out in duplicate in binding buffer [25 mM HEPES pH 7.4, 150 mM NaCl, 1 mM EDTA, 2 mM MgCl2, 0.25% BSA, […]]. Mix binding buffer, membrane proteins (or CHO cells expressing hCB2 receptors) together. Dispense 75 ul of mixture into each well in 96 well plates. Add 1 ul of drug in DMSO, or DMSO alone into each well. 1:500-1000 dilute the hot ligand [^3H]CP55,940 (specific activity=120 Ci/mmol; PerkinElmer Life and Analytical Sciences) in binding buffer and add 25 ul per well with either 5 ug/well cell membrane or 50000 cells/well. After incubation at room temperature for 2 hours, transfer the binding reaction onto filtration plates (UniFilter CF/C filter plate presoaked with 0.3% polyethylenimine; PerkinElmer Life and Analytical Sciences) using Packard Cell Harvester. Wash the filter with quarter strength of PBS (1:4 dilution of regular PBS with H2O) 8 times. Air dry the filter, add 40 ul MicroScint20 into each well, seal the top, and count with the TopCount. Bound radioactivity was analyzed for Ki using nonlinear regression analysis (Excel Xfit) with the Kd values for [3H]CP55,940 determined from saturation experiments.
# [1] = molecular target: T2, CB2/CHO cell membrane proteins (Homo sapiens, UniProt P34972); assay: GTPgS binding assay; assay type: biochemical; conditions: [35S]GTPγS, CB2/CHO cell membranes
# T2 construct: expressed in transfected cells; host or cells: CHO cells (membranes)
# T2 sequence (P34972 whole entry): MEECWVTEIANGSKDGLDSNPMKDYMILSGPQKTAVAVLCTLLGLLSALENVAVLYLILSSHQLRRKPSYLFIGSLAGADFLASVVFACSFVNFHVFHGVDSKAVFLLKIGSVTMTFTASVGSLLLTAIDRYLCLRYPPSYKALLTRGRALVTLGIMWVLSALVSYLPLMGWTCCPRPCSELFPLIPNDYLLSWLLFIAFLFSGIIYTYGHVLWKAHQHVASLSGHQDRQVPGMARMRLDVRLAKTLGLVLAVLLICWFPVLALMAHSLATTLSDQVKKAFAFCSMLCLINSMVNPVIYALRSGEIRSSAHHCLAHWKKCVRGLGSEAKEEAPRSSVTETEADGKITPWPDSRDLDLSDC
# Description: Add 50 ul of reaction mixture containing 2 ug of CB2/CHO cell membrane proteins, 10 ul WGA-PVT beads (20 mg/ml), and 5 uM GDP in assay buffer (20 mM HEPES pH 7.4, 100 mM NaCl, 1 mM EDTA, 10 mM MgCl2, 10 ug/ml saponin, 0.25% BSA, and 1 uM leupeptin) into each well in 96 well white plate (Corning 3693, VWR#29444-312). Add 1 ul of testing compound into test, 1 ul of DMSO into basal, 1 ul of 200 uM CP55,940 into 100% activation, 1 ul of 1 mM cold GTPγS into NSB wells, respectively. Dilute [^35S]GTPγS (1:12.5 pre-diluted 1 uCi/ul stock, NEG030H, NEN) 1:1350 in binding buffer and add 25 ul into each well (200 pM final). Incubate at RT for 90 min and spin the plate at 1000 rpm for 5 min before counting with TopCount for 1-2 min.
# T1 sequence (P34972 whole entry): as above
Structure (SMILES),Ki (hCB2 receptors) [nM],EC50 [1] [nM]
"CC1(C)Cc2ccc(C#N)cc2[C@H]1NC(=O)c1cc2cc(O)ccc2[nH]1 [Example 1A, (S)—N-(6-Cyano-2,2-dimethyl-2,3-dihydro-1H-inden-1-yl)-5-hydroxy-1H-indole-2-carboxamide]",1590,
"CN(C)CCn1c(C(=O)N[C@H]2c3cc(C#N)ccc3CC2(C)C)cc2cc(Cl)ccc21 [Example 4, (R)-5-Chloro-N-(6-cyano-2,2-dimethyl-2,3-dihydro-1H-inden-1-yl)-1-(2-(dimethylamino)ethyl)-1H-indole-2-carboxamide]",60 ± 26,8.1 ± 2.2
"CC1(C)Cc2ccc(C#N)cc2[C@@H]1NC(=O)c1cc2cc(Cl)ccc2n1CCN1CCOCC1 [Example 5, (R)-5-Chloro-N-(6-cyano-2,2-dimethyl-2,3-dihydro-1H-inden-1-yl)-1-(2-morpholinoethyl)-1H-indole-2-carboxamide]",39 ± 14,7.8 ± 2.5
"CC1(C)Cc2ccc(C#N)cc2[C@@H]1NC(=O)c1cc2cc(N)ccc2[nH]1 [Example 9, (R)-5-Amino-N-(6-cyano-2,2-dimethyl-2,3-dihydro-1H-inden-1-yl)-1H-indole-2-carboxamide]",39 ± 14,
"COCCNc1ccc2[nH]c(C(=O)N[C@H]3c4cc(C#N)ccc4CC3(C)C)cc2c1 [Example 10, (R)—N-(6-Cyano-2,2-dimethyl-2,3-dihydro-1H-inden-1-yl)-5-(2-methoxyethylamino)-1H-indole-2-carboxamide]",50 ± 16,
"COC(=O)c1ccc2c(c1)[C@H](NC(=O)c1cc3cc(Cl)ccc3[nH]1)C(C)(C)C2 [Example 11, (R)-Methyl-3-(5-chloro-1H-indole-2-carboxamido)-2,2-dimethyl-2,3-dihydro-1H-indene-5-carboxylate]",35 ± 12,

# Stronger by Ki (hCB2 receptors), values ahead:
Ki (hCB2 receptors) [nM],EC50 [1] [nM],Structure (SMILES)
7.6 ± 1.7,4.5 ± 1.2,"Cn1c(C(=O)N[C@H]2c3cc(C#N)ccc3CC2(C)C)cc2cc(Cl)ccc21 [Example 3, (R)-5-Chloro-N-(6-cyano-2,2-dimethyl-2,3-dihydro-1H-inden-1-yl)-1-methyl-1H-indole-2-carboxamide]"
4.2 ± 1.6,,"CC1(C)Cc2ccc(C#N)cc2[C@@H]1NC(=O)c1cc2cc([N+](=O)[O-])ccc2[nH]1 [Example 8, (R)—N-(6-Cyano-2,2-dimethyl-2,3-dihydro-1H-inden-1-yl)-5-nitro-1H-indole-2-carboxamide]"
3,2.4 ± 0.55,"CC1(C)Cc2ccc(C#N)cc2[C@@H]1NC(=O)c1cc2cc(O)ccc2[nH]1 [Example 1, (R)—N-(6-Cyano-2,2-dimethyl-2,3-dihydro-1H-inden-1-yl)-5-hydroxy-1H-indole-2-carboxamide]"
2.4 ± 1.1,,"CC1(C)Cc2ccc(C#N)cc2[C@@H]1NC(=O)c1cc2ccccc2[nH]1 [Example 6, (R)—N-(6-Cyano-2,2-dimethyl-2,3-dihydro-1H-inden-1-yl)-1H-indole-2-carboxamide]"
0.71 ± 0.18,2.2 ± 0.48,"CC1(C)Cc2ccc(C#N)cc2[C@@H]1NC(=O)c1cc2cc(Cl)ccc2[nH]1 [Example 2, (R)N-(6-Cyano-2,2-dimethyl-2,3-dihydro-1H-inden-1-yl)-5-chloro-1H-indole-2-carboxamide]"
0.24 ± 0.12,,"CC1(C)Cc2ccc(C#N)cc2[C@@H]1NC(=O)c1cc2cc(F)ccc2[nH]1 [Example 7, (R)—N-(6-Cyano-2,2-dimethyl-2,3-dihydro-1H-inden-1-yl)-5-fluoro-1H-indole-2-carboxamide]"
